Measurements: patent US20080242681A1, “N-4-(6-(Hetero)Aryl-Pyrimidin-4-Ylaminophenyl)-Benzenesulfonamides as Kinase Inhibitors” (Altana Pharma AG, priority 2004, published 2008)
pIC50: −log10 of the molar value. Where a name gives a salt, the structure may show the parent alone.

Assays:
[1] = test system: primary human CD4+ T lymphocytes; experiment: CD3/CD28 costimulation assay, IL-2 release; assay type: cell-based; conditions: 48 h, IL-2 ELISA, read-out: IC50, inhibition of IL-2 release from stimulated CD4+ T lymphocytes
Experimental: The assay is performed with freshly isolated primary human CD4+ T lymphocytes. CD4+ T lymphocytes from whole blood are prepared using negative selection as previously described (Hatzelmann and Schudt, J. Pharmacol. Exp. Ther. 2001; 297:267-279). In brief, peripheral blood mononuclear cells (PBMC) are isolated by density gradient centrifugation using a Percoll gradient (p= 1.077 g/ml). 1×10^7 PBMC were then resuspended in 30 μl of PBS containing 0.5% FCS and human CD4+ T lymphocytes are isolated by depletion of non CD4+ T cells. For this, non-CD4+ T cells are Indirectly magnetically labeled with 10 μl of a cocktail of biotin-conjugated monoclonal antibodies (against CD8, CD14, CD16, CD19, CD36, CD56, CD123, TCR γ/δ; MACS CD4+ T cell isolation kit II, Miltenyi Biotec), as primary labeling reagent, and anti-biotin monoclonal antibodies conjugated to MicroBeads, as secondary labeling reagent The magnetically labeled non-CD4+ T cells are depleted by retaining them on a MACS column in the magnetic field of a MACS separator (Miltenyi Biotec, Bergisch Gladbach, Germany) according to the manufacturer's instruction. CD4+ T cells are resuspended in RPM 11640 containing 10% heat-inactivated FCS, 2 mM L-glutamine, 100 U/ml penicillin and 100 μg/ml streptomycin (Gibco Life Technologies).
2×10^5 CD4+ T cells in a total assay volume of 200 μl are stimulated via the T-cell receptor and the costimulatory molecule CO28 by using corresponding selective mAbs as previously described (Hatzelmann and Schudt, J. Pharmacol. Exp. Ther. 2001; 297:267-279). The assay is performed in 96 well tissue culture plates (655180, flat bottom, Greiner, Frickenhausen, Germany). Cells were maintained at 37° C. in a humidified atmosphere of 5% CO2 in an incubator (type BB6220 CU, Heraeus Instruments, Hanau, Germany). For determination of IL-2 level, all assays are performed in duplicate, and after 48 h of growth, supernatants are removed, pooled in 96 well plates (650101, U-shape, Greiner) and stored at −20° C. before measurement of IL-2 with a commercially available enzymimmunoassay kit from Coulter-Immunotech Diagnostics (Marseille, France) according to the manufacturer's instruction. For each experiment the appropriate dilution factor for IL-2 is determined. Dilutions are performed in diluent D (Coulter-Immunotech Diagnostics) and IL-2 for one condition is determined from the pool fraction in duplicate in a ELISA-reader (Rainbow, Tecan, Crailsheim, Germany) at 450 nm.
To investigate the effect of a test compound on the IL-2 release of stimulated CD4+ T cells, six three-fold dilution steps in duplicates per test compound are performed (final DMSO concentration 0.1%). […] The inhibition obtained In the presence of a test compound is calculated as percent inhibition of the high control. […]

[2] = biological target: T1, PKCδ (Homo sapiens, UniProt Q05655); experiment: Protein Kinase C δ assay (SPA); assay type: biochemical; conditions: human recombinant PKCδ, PKCη pseudosubstrate, read-out: IC50, inhibition of PKC δ
T1 construct: purchased Panvera
Experimental: (§1) The compounds of formula 1 are tested for their activity on different protein kinases and PKC isoforms using a scintillation proximity assay (SPA, Amersham International plc). ^33P-labeled peptides are captured onto streptavidin coated yttrium silicate SPA beads. β-particles, emitted from the captured ^33P-labeled substrate in close proximity to the bead are able to excite the scintillant, resulting in the generation of quantifiable light. The assay is performed in a 96-well polystyrene microtiterplate (1450-514, Isoplates, Wallac, Turku, Finland). The reaction mixture (50 μl) contains 10 μl of the test compound together with 10 μl of the relevant kinase, diluted in the relevant dilution buffer, 5 μl of 10 μM phorbol myristate acetate (PMA) in H2O, 5 μl of 1.6 mM phosphatidylserine (Sigma-Aldrich Chemie GmbH, Stein-heim, Germany) in 20 mM Tris/HCL buffer pH 7.4, 5 μl of 0.3% BSA in H2O, 5 μl of 30 μM relevant substrate and 10 μl of 5 μM ATP and 0.1 μCi of ^33P-ATP (Amersham, Freiburg, Germany) in 200 mM Tris/HCL pH 7.5 and 200 mM MgCl2. Incubation is performed for 40 min at room temperature (RT) without shaking. Reaction is stopped by adding 150 μl of cold stop solution containing 10 mM ATP, 5 mM EGTA pH 7.5, 0.1% Triton X-100 and 0.2 mg streptavidin coated yttrium silicate SPA beads (Amersham, RPNQ 0012). The sealed plate is incubated for 60 min at RT. Thereafter the MTP is counted in a Microbeta Jet (Wallac). IC50 measurement is performed on a routine basis by incubation a serial dilution of inhibitor at concentrations ranging between 0.01 and 100 μM according to the method described above. Background values are the signals of the reaction mixture without addition of the relevant kinase and are subtracted from all values. 100% values are the signals of the reaction mixture without addition of inhibitors.
Dependent on the efficacy of the inhibitors In the various test systems, corresponding IC50 values are calculated from concentration-inhibition curves by nonlinear regression analysis using the program GraphPad Prism (GraphPad Software Inc., San Diego, Calif.). […]

[3] = test system: responder T cells; experiment: Mixed lymphocyte reaction (MLR), T cell proliferation; assay type: cell-based; conditions: [3H]thymidine incorporation after 48 h, read-out: IC50, inhibition of MLR-mediated T-cell proliferation
Experimental: For MLR cultures 4×10^5 responder T cells are incubated in duplicates with 2×10^5 mitomycin C-treated allogeneic stimulator T cells in a total volume of 200 μl RPMI 1640 medium supplemented with 10% FCS, 2 mM L-glutamine, 100 U/ml penicillin and 100 μg/ml streptomycin (Gibco Life Technologies) in 96 well tissue culture plates (655180, flat bottom, Greiner). Cells are maintained at 37° C. in a humidified atmosphere of 5% CO2. After 48 h of growth, cells are pulsed with 1 μCi [^3H]thymidine and incorporation of [^3H]thymidine is measured with a Topcount radioactive counter (Packard). To investigate the effect of a test compound on MLR-mediated T cell proliferation six three-fold dilution steps in duplicates per test compound are performed (final DMSO concentration 0.1%). Low control values are the proliferation of responder cells alone; high controls are from mixed lymphocyte cells without any test samples. Low controls are subtracted from all values. The inhibition obtained in the presence of a test compound is calculated as percent Inhibition of the high control. The concentration of test compounds resulting in 50% inhibition (IC50) is determined from the dose-response curves. The examples 91, 128, 133 and 137 inhibit MLR-mediated T-cell proliferation in this assay with an IC50<1 μM.

[4] = biological target: T2, PKCθ (Homo sapiens, UniProt Q04759); experiment: Protein Kinase C θ assay (SPA); assay type: biochemical; conditions: human recombinant PKCθ from Sf21 insect cells, read-out: IC50, inhibition of PKC θ
T2 construct: made in house; host or cells: Sf21 insect cells
Experimental: as §1
(§2) Dependent on the efficacy of the inhibitors In the various test systems, corresponding IC50 values are calculated from concentration-inhibition curves by nonlinear regression analysis using the program GraphPad Prism (GraphPad Software Inc., San Diego, Calif.).
(§3) Human recombinant nickel bead purified PKCθ from Sf21 insect cells is used under the assay conditions as described above (Section A.1). The enzyme is diluted in PKC dilution buffer containing 1 mM Hepes pH 7.4, 0.5 mM DTT and 0.001% Triton X-100. The kinase reaction is performed with the biotinylated PKCθ pseudosubstrate solved in H2O. The examples 8, 22, 46, 115, 118 and 161 inhibit PKC 9 in this assay with an IC50<1 μM.

[5] = biological target: T3, PKCη (Homo sapiens, UniProt P24723); experiment: Protein Kinase C η assay (SPA); assay type: biochemical; conditions: human recombinant PKCη from Sf21 insect cells, read-out: IC50, inhibition of PKC η
T3 construct: made in house; host or cells: Sf21 insect cells
Experimental: as §1, §2
as §3, with “PKCη” for “PKCθ”, “52, 55,” for “8, 22, 46, 115,”, “135” for “161”, “η” for “9”, “IC50 between 6 and 50” for “IC50<1”

T1 sequence (Q05655 whole entry): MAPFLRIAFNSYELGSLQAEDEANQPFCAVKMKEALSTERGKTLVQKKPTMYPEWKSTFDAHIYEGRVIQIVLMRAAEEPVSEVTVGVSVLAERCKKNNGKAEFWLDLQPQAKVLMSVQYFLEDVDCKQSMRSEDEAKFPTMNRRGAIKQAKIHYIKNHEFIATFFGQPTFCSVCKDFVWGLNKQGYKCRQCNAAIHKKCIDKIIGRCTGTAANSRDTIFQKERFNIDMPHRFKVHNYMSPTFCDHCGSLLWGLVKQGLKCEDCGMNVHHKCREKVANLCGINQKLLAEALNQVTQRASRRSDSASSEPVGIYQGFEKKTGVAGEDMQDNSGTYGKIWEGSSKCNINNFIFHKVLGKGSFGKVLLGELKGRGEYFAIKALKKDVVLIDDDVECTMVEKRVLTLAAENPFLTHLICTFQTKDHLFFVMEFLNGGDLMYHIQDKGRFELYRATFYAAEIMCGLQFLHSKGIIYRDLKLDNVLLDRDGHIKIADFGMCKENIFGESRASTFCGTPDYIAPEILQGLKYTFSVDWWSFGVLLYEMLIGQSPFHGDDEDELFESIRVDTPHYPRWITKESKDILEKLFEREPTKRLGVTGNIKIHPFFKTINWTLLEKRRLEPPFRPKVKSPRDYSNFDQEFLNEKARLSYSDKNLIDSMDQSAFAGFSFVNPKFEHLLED
T2 sequence (Q04759 whole entry): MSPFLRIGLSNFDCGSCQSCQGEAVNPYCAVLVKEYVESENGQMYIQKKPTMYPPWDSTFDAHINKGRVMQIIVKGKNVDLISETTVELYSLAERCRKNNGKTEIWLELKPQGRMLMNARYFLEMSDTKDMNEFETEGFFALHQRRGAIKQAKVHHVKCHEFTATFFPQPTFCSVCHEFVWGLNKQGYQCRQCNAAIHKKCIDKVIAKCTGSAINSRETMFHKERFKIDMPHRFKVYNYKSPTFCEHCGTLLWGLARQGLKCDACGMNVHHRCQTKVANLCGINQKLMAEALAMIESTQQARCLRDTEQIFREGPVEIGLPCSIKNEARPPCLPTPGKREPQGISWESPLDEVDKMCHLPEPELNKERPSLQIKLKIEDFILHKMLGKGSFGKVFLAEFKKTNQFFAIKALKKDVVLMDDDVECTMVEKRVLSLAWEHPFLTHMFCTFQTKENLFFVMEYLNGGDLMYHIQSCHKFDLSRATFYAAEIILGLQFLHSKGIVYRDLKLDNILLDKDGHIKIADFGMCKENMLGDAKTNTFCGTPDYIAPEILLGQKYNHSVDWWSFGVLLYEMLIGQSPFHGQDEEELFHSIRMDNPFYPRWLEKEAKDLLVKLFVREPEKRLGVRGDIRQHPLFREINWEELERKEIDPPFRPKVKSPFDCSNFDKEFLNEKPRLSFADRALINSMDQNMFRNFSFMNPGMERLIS
T3 sequence (P24723 whole entry): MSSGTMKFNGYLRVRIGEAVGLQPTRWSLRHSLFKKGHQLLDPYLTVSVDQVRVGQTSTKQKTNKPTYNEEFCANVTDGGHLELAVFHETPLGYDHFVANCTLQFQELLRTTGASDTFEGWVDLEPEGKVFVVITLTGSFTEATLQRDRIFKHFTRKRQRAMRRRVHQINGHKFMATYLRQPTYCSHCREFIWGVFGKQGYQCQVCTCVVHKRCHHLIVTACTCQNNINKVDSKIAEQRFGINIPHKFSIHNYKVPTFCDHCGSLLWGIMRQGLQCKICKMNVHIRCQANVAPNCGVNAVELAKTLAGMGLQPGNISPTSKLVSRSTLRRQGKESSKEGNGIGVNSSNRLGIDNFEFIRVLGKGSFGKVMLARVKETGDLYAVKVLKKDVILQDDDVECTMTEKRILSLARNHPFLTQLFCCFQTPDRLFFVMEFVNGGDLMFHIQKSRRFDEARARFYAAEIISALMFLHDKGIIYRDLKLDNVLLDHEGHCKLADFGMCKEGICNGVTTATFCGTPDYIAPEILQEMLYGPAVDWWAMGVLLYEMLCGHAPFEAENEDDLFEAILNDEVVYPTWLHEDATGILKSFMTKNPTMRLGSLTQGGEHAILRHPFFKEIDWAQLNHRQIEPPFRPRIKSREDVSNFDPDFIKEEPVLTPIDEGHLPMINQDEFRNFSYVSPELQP

In the case of COc1cccc(-c2cc(Nc3ccc(NS(=O)(=O)c4ccccc4F)cc3)ncn2)c1 [Example 20, 2-Fluoro-N-{4-[6-(3-methoxy-phenyl)-pyrimidin-4-ylamino]-phenyl}-benzenesulfonamide], the pIC50 [1] was 5.05 to 6.00.

With COc1cccc(-c2cc(Nc3ccc(NS(=O)(=O)c4ccc(C#N)cc4)cc3)ncn2)c1 [Example 19, 4-Cyano-N-{4-[6-(3-methoxy-phenyl)-pyrimidin-4-ylamino]phenyl}benzenesulfonamide] the pIC50 [1] was 5.05 to 6.00.

Work on COc1ccc(S(=O)(=O)Nc2ccc(Nc3cc(-c4ccc5c(ccn5CCN(C)C)c4)ncn3)cc2)cc1 [Example 132, N-(4-{6-[1-(2-Dimethylamino-ethyl)-1H-indol-5-yl]-pyrimidin-4-ylamino}-phenyl)-4-methoxy-benzenesulfonamide] yielded a pIC50 [2] of 4.74 to 5.70.

Work on CCN(CC)CCCn1ccc2cc(-c3cc(Nc4ccc(NS(=O)(=O)c5ccc(F)cc5F)cc4)ncn3)ccc21 [Example 168, N-(4-{6-[1-(3-Diethylamino-propyl)-1H-indol-5-yl]-pyrimidin-4-ylamino}-phenyl)-2,4-difluoro-benzenesulfonamide formic acid salt] yielded a pIC50 [2] of 4.74 to 5.70.

CN1CCC(COc2ccc(-c3cc(Nc4ccc(NS(=O)(=O)c5ccc(F)cc5F)cc4)ncn3)cc2)CC1 [Example 91, 2,4-Difluoro-N-(4-{6-[4-(1-methyl-piperidin-4-ylmethoxy)-phenyl]-pyrimidin-4-ylamino}-phenyl)-benzenesulfonamide formic acid salt] showed a pIC50 [3] of over 6.00.

O=S(=O)(Nc1ccc(Nc2cc(-c3ccc4[nH]ccc4c3)ncn2)cc1)c1ccc(F)cc1F [Example 118, 2,4-Difluoro-N-{4-[6-(1H-indol-5-yl)-pyrimidin-4-ylamino]-phenyl}-benzenesulfonamide] showed a pIC50 [4] of over 6.00 and a pIC50 [5] of 4.30 to 5.22.

Work on CN(C)CCCn1ccc2cc(-c3cc(Nc4ccc(NS(=O)(=O)c5ccc(F)c(Cl)c5)cc4)ncn3)ccc21 [Example 137, 3-Chloro-N-(4-{6-[1-(3-dimethylamino-propyl)-1H-indol-5-yl]-pyrimidin-4-ylamino}-phenyl)-4-fluoro-benzenesulfonamide] yielded a pIC50 [3] of over 6.00.

Cc1ccc(S(=O)(=O)Nc2ccc(Nc3cc(-c4ccc5c(ccn5CCN(C)C)c4)ncn3)cc2)cc1 [Example 136, N-(4-{6-[1-(2-Dimethylamino-ethyl)-1H-indol-5-yl]pyrimidin-4-ylamino}-phenyl)-4-methyl-benzenesulfonamide] showed a pIC50 [1] of 5.05 to 6.00.

Compound O=S(=O)(Nc1ccc(Nc2cc(-c3cccc4ccccc34)ncn2)cc1)c1ccccc1F [Example 13, 2-Fluoro-N-[4-(6-naphthalen-1-yl-pyrimidin-4-ylamino)-phenyl]-benzenesulfonamide] has a pIC50 [1] of 5.05 to 6.00.

With CN(C)CCCn1ccc2cc(-c3cc(Nc4ccc(NS(=O)(=O)c5ccc(F)cc5F)cc4)ncn3)ccc21 [Example 133, N-(4-{6-[1-(3-Dimethylamino-propyl)-1H-indol-5-yl]-pyrimidin-4-ylamino}-phenyl)-2,4-difluorobenzenesulfonamide] the pIC50 [3] was over 6.00.

CN(C)CCn1ccc2cc(-c3cc(Nc4ccc(NS(=O)(=O)c5ccc(F)c(Cl)c5)cc4)ncn3)ccc21 [Example 138, 3-Chloro-N-{4-[6-[1-(2-dimethylamino-ethyl)-1H-indol-5-yl]pyrimidin-4-ylamino]-phenyl}-4-fluoro-benzenesulfonamide] was tested, and the pIC50 [2] was 4.74 to 5.70.
